Values belong to the compound of their own block, whether it stands above or below them.
Tests used:
[1] = molecular target: T1, Polyunsaturated fatty acid lipoxygenase ALOX12 (Homo sapiens) (UniProt P18054); assay: Inhibitory activity against human platelet 12-lipoxygenase was evaluated at 100 uM
T1 sequence (whole entry): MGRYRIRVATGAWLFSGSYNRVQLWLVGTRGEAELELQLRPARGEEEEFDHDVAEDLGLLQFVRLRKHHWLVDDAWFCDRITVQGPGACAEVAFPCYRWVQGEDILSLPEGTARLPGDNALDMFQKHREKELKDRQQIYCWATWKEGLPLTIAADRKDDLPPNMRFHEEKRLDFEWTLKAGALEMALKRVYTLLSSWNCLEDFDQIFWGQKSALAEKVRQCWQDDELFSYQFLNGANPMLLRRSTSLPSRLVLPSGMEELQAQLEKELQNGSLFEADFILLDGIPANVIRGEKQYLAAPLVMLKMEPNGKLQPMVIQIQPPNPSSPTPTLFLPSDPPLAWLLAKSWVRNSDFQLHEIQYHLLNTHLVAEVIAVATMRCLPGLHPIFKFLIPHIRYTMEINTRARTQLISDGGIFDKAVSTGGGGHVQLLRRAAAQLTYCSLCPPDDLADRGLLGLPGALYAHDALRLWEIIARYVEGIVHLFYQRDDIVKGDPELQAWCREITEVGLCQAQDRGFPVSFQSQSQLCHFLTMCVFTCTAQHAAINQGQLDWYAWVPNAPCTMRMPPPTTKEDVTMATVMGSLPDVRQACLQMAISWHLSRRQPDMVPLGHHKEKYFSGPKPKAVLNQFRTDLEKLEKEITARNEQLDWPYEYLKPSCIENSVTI

Cyclooxygenase = molecular target: T2, Cyclooxygenase (Rattus norvegicus, UniProt P35355+Q63921); assay: Inhibitory activity against intact rat PMNL, PGE-2 cyclooxygenase was evaluated; type: protein assay
T2 sequence (P35355 whole entry): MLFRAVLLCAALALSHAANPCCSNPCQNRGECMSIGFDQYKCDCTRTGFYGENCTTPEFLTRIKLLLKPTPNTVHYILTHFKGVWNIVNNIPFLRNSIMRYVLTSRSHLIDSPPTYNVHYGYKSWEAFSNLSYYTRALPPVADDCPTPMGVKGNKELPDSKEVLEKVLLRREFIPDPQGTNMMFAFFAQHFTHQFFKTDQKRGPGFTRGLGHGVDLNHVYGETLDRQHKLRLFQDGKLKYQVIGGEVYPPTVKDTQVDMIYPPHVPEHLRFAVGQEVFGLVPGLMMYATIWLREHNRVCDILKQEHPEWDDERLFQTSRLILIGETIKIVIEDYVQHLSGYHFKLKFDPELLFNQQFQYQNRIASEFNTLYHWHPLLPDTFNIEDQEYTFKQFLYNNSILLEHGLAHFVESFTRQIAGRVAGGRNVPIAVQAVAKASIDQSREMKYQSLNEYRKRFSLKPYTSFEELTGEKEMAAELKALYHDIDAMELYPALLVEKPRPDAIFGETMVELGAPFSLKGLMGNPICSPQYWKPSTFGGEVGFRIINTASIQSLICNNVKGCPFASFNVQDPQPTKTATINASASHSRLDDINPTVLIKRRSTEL
T2 sequence (Q63921 whole entry): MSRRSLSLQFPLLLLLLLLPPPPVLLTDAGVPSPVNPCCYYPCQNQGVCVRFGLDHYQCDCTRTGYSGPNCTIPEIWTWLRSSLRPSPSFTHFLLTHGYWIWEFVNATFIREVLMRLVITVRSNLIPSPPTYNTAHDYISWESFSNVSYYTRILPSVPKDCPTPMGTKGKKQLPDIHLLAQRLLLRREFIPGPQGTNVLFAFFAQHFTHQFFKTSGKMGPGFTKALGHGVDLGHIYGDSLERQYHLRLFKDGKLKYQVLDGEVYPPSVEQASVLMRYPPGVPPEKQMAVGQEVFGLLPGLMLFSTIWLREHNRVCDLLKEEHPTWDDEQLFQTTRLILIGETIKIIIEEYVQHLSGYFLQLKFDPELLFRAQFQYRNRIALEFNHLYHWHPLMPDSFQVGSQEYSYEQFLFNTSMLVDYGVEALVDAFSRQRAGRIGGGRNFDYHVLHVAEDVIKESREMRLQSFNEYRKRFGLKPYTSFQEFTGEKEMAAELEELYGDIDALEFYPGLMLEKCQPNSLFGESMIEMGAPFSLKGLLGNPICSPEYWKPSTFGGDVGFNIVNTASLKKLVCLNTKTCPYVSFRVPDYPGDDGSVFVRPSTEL

Rattus norvegicus [2] = assay: The in vivo activity of compound was evaluated in a rat anaphylaxis model involving antigen-antibody stimulated leukotriene generation in the peritoneum by oral administration; type: functional
Rattus norvegicus [3] = species: Rattus norvegicus; assay: Toxicity was assessed from activity to convert hemoglobin to methemoglobin in vitro at 400 uM in rat; T-toxic
[4] = molecular target: T3, Polyunsaturated fatty acid lipoxygenase ALOX12 (Homo sapiens, UniProt P18054); assay: Inhibitory activity against human platelet 12-lipoxygenase was evaluated
T3 sequence (P18054 whole entry): T1 sequence (whole entry)

[5] = molecular target: T4, Polyunsaturated fatty acid 5-lipoxygenase (Homo sapiens, UniProt P09917); assay: Inhibitory activity against human whole blood, LTB4 5-lipoxygenase was evaluated
T4 sequence (P09917 whole entry): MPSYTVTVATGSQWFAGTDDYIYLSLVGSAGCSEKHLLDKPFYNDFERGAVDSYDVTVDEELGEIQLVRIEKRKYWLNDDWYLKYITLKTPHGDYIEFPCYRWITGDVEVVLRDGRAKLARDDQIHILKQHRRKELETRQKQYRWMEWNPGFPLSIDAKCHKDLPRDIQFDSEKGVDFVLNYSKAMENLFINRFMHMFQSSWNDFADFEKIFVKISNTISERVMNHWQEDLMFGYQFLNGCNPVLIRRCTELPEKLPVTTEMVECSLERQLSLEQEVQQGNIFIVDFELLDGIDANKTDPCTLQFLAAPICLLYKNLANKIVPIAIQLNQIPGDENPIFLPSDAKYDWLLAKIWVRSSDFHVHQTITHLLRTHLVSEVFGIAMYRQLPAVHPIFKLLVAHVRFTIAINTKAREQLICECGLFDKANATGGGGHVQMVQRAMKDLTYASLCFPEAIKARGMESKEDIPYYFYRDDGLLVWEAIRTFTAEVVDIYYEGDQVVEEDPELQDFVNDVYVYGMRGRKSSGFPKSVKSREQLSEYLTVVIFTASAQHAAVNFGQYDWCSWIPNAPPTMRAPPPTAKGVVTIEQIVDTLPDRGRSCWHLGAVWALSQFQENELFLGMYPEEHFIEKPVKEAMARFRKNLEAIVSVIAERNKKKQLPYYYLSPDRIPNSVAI

[6] = molecular target: T4, Polyunsaturated fatty acid 5-lipoxygenase; assay: Inhibitory activity against intact human PMNL, LTB4 5-lipoxygenase was evaluated
[7] = molecular target: T5, Polyunsaturated fatty acid 5-lipoxygenase (Rattus norvegicus, UniProt P12527); assay: Inhibitory activity against RBL broken cell-supematant 5-lipoxygenase was evaluated; type: cell-based
T5 sequence (P12527 whole entry): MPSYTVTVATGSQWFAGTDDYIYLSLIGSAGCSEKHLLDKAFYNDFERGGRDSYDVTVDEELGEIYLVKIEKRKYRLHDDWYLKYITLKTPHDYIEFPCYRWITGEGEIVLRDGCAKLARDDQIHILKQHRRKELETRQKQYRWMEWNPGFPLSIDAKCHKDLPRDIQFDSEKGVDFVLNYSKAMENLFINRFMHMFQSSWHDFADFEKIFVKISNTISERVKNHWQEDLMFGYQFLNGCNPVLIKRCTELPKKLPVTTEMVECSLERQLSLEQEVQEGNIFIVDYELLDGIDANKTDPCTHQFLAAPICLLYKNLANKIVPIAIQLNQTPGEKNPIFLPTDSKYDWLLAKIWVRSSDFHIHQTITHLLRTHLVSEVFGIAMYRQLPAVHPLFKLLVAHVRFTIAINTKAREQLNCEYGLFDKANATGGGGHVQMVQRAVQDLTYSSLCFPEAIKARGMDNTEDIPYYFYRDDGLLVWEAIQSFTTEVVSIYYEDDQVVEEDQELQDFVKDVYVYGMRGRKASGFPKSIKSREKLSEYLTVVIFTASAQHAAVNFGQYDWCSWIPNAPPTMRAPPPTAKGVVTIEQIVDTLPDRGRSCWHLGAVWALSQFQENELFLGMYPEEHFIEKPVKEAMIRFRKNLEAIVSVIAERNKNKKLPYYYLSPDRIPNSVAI

[8] = molecular target: T5, Polyunsaturated fatty acid 5-lipoxygenase; assay: Inhibitory activity against intact rat PMNL, LTB4 5-lipoxygenase was evaluated
[9] = Compound was evaluated for Plasma levels upon oral administration at 30 mg/kg in Dog at maximum of 0.3 hours; type: ADME, organism-based, Canis lupus familiaris; parameters: dose 30 mg/kg, route oral
[10] = Compound was evaluated for Plasma levels upon oral administration at 30 mg/kg in Monkey at maximum of 0.4 hours; type: ADME, organism-based; parameters: dose 30 mg/kg, route oral; conditions: cercopithecidae, read-out: Concentration
[11] = Compound was evaluated for Plasma levels upon oral administration at 30 mg/kg in Monkey at maximum of 1.0 hours; type: ADME, organism-based; parameters: dose 30 mg/kg, route oral; conditions: cercopithecidae, read-out: Concentration
[12] = Half-life upon intravenous administration was tested; type: ADME, organism-based; conditions: in vivo
[13] = molecular target: Cyclooxygenase (Rattus norvegicus) (UniProt P35355+Q63921); assay: Inhibitory activity against intact rat PMNL, PGE-2 cyclooxygenase was evaluated at 100 uM; type: protein assay
Rattus norvegicus [14] = assay: In vivo activity of compound was evaluated in a rat anaphylaxis model involving antigen-antibody stimulated leukotriene generation in the peritoneum by oral administration; type: functional
[15] = molecular target: Cyclooxygenase (Homo sapiens) (UniProt P35354+P23219); assay: Inhibitory activity against human whole blood, TXB2 cyclooxygenase was evaluated at 100 uM; type: protein assay

SMILES: NC1=NN(c2cccc(C(F)(F)F)c2)CC1 [BW-755C]
- inhibition [1]: 5%
- IC50 (Cyclooxygenase): 0.8 µM
- ED50 (Rattus norvegicus [2]): 36 mg/kg

SMILES: O=C1CCCN(c2ccc(O[C@H]3O[C@@H](C(=O)O)[C@H](O)[C@@H](O)[C@@H]3O)cc2)N1
- Activity (Rattus norvegicus [3]): Toxic

- IC50 [4]: 0.1 µM
SMILES: O=C1CCN(c2ccccc2)N1 [PHENIDONE]
- ED50 (Rattus norvegicus [2]): 17 mg/kg

- inhibition [1]: 7%
- IC50 [5]: 0.7 µM
- IC50 [6]: 1 µM
- IC50 [7]: 4.3 µM
- IC50 [8]: 1.2 µM
- concentration at 0.3 h [9]: 124 µM
- Cmax [10]: 22 µM
- Cmax [11]: 90 µM
- half-life [12]: 1.1 h
- inhibition [13]: 3%
- inhibition [15]: 13%
SMILES: O=C1CCCN(c2ccccc2)N1
- ED50 (Rattus norvegicus [14]): 6 mg/kg

SMILES: O=C1CCCN(c2ccc(O)cc2)N1
- Activity (Rattus norvegicus [3]): Toxic

SMILES: O=C1CCC(O)N(c2ccccc2)N1 (stereo unspecified)
- Activity (Rattus norvegicus [3]): Toxic

SMILES: O=C(O)[C@H]1O[C@@H](OC2=NN(c3ccccc3)CCC2)[C@H](O)[C@@H](O)[C@@H]1O
- Activity (Rattus norvegicus [3]): Toxic

Reference: ChEMBL document CHEMBL1152112, “1-Phenyl-[2H]-tetrahydropyridazin-3-one, A-53612, a selective orally active 5-lipoxygenase inhibitor” (Bioorg Med Chem Lett, 1992)
